In paper PMC7912740 (Pharmaceutics, 2021) one finds Ki and IC50 data, which are given here for two compounds.

Common to all, as to assay type: biochemical
Assay [1] has as its target T1, UGT1A1 (Homo sapiens, UniProt P22309).
T1 construct: native enzyme in ultrapooled human liver microsomes (Corning 452161), read by SN-38 glucuronidation
T1 sequence (P22309 26-533): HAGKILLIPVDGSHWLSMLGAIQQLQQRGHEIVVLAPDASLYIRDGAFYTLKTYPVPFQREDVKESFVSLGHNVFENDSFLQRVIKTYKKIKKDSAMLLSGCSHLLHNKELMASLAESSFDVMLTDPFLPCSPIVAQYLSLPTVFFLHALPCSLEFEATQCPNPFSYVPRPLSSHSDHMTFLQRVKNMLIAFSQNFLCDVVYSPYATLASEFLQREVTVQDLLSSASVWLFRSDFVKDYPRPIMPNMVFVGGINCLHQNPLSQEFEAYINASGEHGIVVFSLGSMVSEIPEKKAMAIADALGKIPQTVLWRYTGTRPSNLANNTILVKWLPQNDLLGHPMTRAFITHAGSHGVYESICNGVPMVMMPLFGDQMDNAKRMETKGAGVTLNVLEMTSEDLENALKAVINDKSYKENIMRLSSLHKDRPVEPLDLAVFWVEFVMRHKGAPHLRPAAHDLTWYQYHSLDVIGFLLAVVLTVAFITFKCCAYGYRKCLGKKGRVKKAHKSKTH
The experiment in a line: SN-38 glucuronidation in human liver microsomes, LC-MS/MS, Dixon plot. The following applies: SN-38 0.2–2 µM, 5 mM UDPGA, 10 mM MgCl2, alamethicin, pH 7.4, 30 min; noncompetitive.

Assay [2] addresses T1, UGT1A1. The experiment in a line: SN-38 glucuronidation in human liver microsomes, cocktail, LC-MS/MS. The settings on record: 0.5 µM SN-38 (probe cocktail set A), 5 mM UDPGA, 10 mM MgCl2, alamethicin, pH 7.4, 37 °C, 60 min.
The target of assay [3] is T2, UGT1A3 (Homo sapiens, UniProt P35503).
T2 construct: native enzyme in ultrapooled human liver microsomes (Corning 452161), read by chenodeoxycholic acid 24-acyl-glucuronidation
T2 sequence (P35503 29-534): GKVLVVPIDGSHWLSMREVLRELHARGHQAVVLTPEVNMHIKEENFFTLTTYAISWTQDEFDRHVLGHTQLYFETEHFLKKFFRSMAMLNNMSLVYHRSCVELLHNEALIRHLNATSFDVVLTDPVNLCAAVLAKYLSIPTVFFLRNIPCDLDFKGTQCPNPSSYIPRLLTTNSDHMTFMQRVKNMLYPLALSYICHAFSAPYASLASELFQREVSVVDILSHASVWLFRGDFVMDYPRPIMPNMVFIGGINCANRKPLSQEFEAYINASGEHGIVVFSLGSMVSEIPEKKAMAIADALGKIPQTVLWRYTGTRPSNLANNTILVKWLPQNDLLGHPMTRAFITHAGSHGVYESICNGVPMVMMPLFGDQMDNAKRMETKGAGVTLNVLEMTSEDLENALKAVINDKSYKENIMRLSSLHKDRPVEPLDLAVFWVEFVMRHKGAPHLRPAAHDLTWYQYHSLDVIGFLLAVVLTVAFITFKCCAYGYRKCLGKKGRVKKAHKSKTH
The experiment in a line: chenodeoxycholic acid 24-acyl-glucuronidation in human liver microsomes, LC-MS/MS, Dixon plot. The settings on record: chenodeoxycholic acid 1–10 µM, 5 mM UDPGA, 10 mM MgCl2, alamethicin, pH 7.4, 30 min; competitive. (In general: Microsomes from liver hold many membrane-bound enzymes, among them those of drug oxidation.)

The next assay has as its target T3, UGT2B7 (Homo sapiens, UniProt P16662).
T3 construct: native enzyme in ultrapooled human liver microsomes (Corning 452161), read by naloxone 3-glucuronidation
T3 sequence (P16662 24-529): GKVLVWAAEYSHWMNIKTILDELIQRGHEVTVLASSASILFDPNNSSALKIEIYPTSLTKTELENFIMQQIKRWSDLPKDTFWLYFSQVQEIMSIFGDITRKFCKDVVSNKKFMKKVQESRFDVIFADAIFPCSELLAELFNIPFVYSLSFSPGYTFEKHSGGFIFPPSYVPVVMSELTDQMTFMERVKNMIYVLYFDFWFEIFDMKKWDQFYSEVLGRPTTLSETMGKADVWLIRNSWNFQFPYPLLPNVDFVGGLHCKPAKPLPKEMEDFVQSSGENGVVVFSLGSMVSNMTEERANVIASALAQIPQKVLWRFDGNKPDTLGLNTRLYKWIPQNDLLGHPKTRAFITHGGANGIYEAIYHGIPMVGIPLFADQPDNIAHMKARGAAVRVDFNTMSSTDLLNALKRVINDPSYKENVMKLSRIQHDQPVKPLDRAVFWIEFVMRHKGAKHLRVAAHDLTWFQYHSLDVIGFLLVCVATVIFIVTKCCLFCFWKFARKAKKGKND
As to the kind of experiment: naloxone 3-beta-D-glucuronidation in human liver microsomes, cocktail, LC-MS/MS. The following applies: 1 µM naloxone (probe cocktail set B), 5 mM UDPGA, 10 mM MgCl2, alamethicin, pH 7.4, 37 °C, 60 min; read-out: IC50 (μM) / Eudesmin.

For assay [4], the target named is T2, UGT1A3. As to the kind of experiment: chenodeoxycholic acid 24-acyl-glucuronidation in human liver microsomes, cocktail, LC-MS/MS. The settings on record: 2 µM chenodeoxycholic acid (probe cocktail set A), 5 mM UDPGA, 10 mM MgCl2, alamethicin, pH 7.4, 37 °C, 60 min.
In the next assay the target is T4, UGT1A9 (Homo sapiens, UniProt O60656).
T4 construct: native enzyme in ultrapooled human liver microsomes (Corning 452161), read by mycophenolic acid glucuronidation
T4 sequence (O60656 26-530): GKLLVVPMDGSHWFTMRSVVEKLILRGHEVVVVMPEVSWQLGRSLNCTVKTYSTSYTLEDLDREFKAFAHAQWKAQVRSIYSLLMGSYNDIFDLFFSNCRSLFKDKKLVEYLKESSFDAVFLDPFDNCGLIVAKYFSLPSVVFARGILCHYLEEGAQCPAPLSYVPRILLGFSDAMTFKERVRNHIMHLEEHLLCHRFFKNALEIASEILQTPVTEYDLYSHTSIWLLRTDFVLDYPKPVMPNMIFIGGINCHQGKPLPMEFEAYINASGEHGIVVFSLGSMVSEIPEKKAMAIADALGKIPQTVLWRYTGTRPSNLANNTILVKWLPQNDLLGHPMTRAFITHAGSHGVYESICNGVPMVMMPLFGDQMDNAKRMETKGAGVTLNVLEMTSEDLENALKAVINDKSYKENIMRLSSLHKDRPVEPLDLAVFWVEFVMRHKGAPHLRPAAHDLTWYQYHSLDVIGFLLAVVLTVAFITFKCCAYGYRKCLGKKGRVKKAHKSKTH
As to the kind of experiment: mycophenolic acid glucuronidation in human liver microsomes, cocktail, LC-MS/MS. The settings on record: 0.2 µM mycophenolic acid (probe cocktail set B), 5 mM UDPGA, 10 mM MgCl2, alamethicin, pH 7.4, 37 °C, 60 min.

The target in another assay is T5, UGT1A6 (Homo sapiens, UniProt P19224).
T5 construct: native enzyme in ultrapooled human liver microsomes (Corning 452161), read by N-acetylserotonin glucuronidation
T5 sequence (P19224 27-532): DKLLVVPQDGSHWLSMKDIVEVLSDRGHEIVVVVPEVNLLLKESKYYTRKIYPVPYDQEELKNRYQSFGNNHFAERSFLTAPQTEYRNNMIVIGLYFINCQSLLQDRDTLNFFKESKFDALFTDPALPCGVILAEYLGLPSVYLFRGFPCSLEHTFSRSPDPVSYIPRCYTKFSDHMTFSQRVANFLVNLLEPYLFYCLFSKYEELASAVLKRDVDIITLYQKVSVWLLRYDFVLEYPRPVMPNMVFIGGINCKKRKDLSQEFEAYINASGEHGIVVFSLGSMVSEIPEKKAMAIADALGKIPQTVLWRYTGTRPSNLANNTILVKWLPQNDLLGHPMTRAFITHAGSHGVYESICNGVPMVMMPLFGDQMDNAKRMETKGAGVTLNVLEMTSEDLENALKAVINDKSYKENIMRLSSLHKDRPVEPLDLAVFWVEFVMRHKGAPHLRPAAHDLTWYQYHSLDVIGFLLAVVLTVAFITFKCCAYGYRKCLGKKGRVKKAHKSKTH
As to the kind of experiment: N-acetylserotonin glucuronidation in human liver microsomes, cocktail, LC-MS/MS. The following applies: 1 µM N-acetylserotonin (probe cocktail set B), 5 mM UDPGA, 10 mM MgCl2, alamethicin, pH 7.4, 37 °C, 60 min.

The target of another assay is T6, UGT1A4 (Homo sapiens, UniProt P22310).
T6 construct: native enzyme in ultrapooled human liver microsomes (Corning 452161), read by trifluoperazine N-glucuronidation
T6 sequence (P22310 29-534): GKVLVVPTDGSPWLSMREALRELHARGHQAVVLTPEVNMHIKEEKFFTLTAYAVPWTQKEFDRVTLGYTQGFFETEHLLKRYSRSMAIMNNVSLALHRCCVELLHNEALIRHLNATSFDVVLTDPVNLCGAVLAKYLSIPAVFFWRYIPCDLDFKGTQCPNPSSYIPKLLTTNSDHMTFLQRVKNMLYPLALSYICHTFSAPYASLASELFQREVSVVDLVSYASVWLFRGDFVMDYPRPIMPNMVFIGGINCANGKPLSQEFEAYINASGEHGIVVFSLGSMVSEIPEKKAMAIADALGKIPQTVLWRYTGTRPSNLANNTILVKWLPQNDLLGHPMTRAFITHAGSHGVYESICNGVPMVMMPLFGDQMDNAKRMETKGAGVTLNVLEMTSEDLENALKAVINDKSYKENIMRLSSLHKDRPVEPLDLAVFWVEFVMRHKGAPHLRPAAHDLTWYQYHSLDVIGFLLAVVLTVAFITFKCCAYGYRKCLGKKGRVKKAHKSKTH
The experiment in a line: trifluoperazine N-glucuronidation in human liver microsomes, cocktail, LC-MS/MS. The following applies: 0.5 µM trifluoperazine (probe cocktail set A), 5 mM UDPGA, 10 mM MgCl2, alamethicin, pH 7.4, 37 °C, 60 min; read-out: IC50 (μM) / Eudesmin.

[5] abbreviates: read-out: IC50 (μM) / Yangambin.
The mark [6] stands for this setting: read-out: IC50 (μM) / Epimagnolin A.

Like-named read-outs stand apart in the source and are kept apart here.

Source text for UGT1A4: trifluoperazine N-glucuronidation in human liver microsomes, cocktail, LC-MS/MS on UGT1A4
Source text for UGT1A6: N-acetylserotonin glucuronidation in human liver microsomes, cocktail, LC-MS/MS on UGT1A6
Source text for UGT1A9: mycophenolic acid glucuronidation in human liver microsomes, cocktail, LC-MS/MS on UGT1A9
Source text for UGT2B7: naloxone 3-beta-D-glucuronidation in human liver microsomes, cocktail, LC-MS/MS on UGT2B7

Consider `COc1ccc([C@H]2OC[C@H]3[C@@H]2CO[C@@H]3c2ccc(OC)c(OC)c2)cc1OC` [Eudesmin], for which the Ki – broadly, a measure of affinity in units of concentration, obtained from inhibition or displacement – on UGT1A1 [1] came to 25.7 µM; on UGT1A3 [3] it was 39.8 µM. Further, the IC50 on UGT1A1 [2] (read-out: IC50 (μM) / Eudesmin) was 24.3 µM; on UGT2B7, greater than 200 µM; at UGT1A3 [4] (read-out: IC50 (μM) / Eudesmin), 26.6 µM; on UGT1A9 (read-out: IC50 (μM) / Eudesmin), 173 µM; on UGT1A6 (read-out: IC50 (μM) / Eudesmin), 196 µM; at UGT1A4 it was greater than 200 µM.

In the case of `COc1cc([C@H]2OC[C@H]3[C@@H]2CO[C@@H]3c2cc(OC)c(OC)c(OC)c2)cc(OC)c1OC` [Yangambin], the Ki at UGT1A1 [1] was 17.1 µM; at UGT1A3 [3], 66.8 µM. Moreover, the IC50 on UGT1A1 [2] (setting [5]) is 29.7 µM; on UGT2B7, greater than 200 µM; at UGT1A3 [4] (setting [5]), 56.5 µM; on UGT1A9 (setting [6]), greater than 200 µM; at UGT1A6 (setting [6]), greater than 200 µM; at UGT1A4, greater than 200 µM.
